Measured values as given in article PMC11323223 (Bioorganic chemistry, 2022).
Read-outs that look alike come from different tables or passages of the source.

Experiments:
[1] = target: T1, FABP3 (Homo sapiens, UniProt P05413); conditions: read-out: FABP3 Ki; cited from earlier work
[2] = target: T2, FABP7 (Homo sapiens, UniProt O15540); conditions: read-out: FABP7 Ki; cited from earlier work
[3] = target: T1, FABP3; assay: Fluorescence displacement binding assay; conditions: read-out: FABP3 Ki; average ± S.E. of at least three independent experiments
[4] = system: CFA-induced thermal hyperalgesia; assay: CFA-induced thermal hyperalgesia; type: in vivo; conditions: 20 mg/kg, i.p., mice, 90 min after administration, n = 6
[5] = target: T2, FABP7; assay: Fluorescence displacement binding assay; conditions: for Ki: read-out: FABP7 Ki, average ± S.E. of at least three independent experiments; for FABP7/3 SI (selectivity index): FABP7 over FABP3, from Ki values; for FABP7/5 SI (selectivity index): FABP7 over FABP5, from Ki values
[6] = target: FABP5 (Homo sapiens, UniProt Q01469); assay: Fluorescence displacement binding assay; conditions: for FABP5/3 SI (selectivity index): FABP5 over FABP3, from Ki values; for Ki: read-out: FABP5 Ki, average ± S.E. of at least three independent experiments
FABP5, sequence (Q01469 whole entry): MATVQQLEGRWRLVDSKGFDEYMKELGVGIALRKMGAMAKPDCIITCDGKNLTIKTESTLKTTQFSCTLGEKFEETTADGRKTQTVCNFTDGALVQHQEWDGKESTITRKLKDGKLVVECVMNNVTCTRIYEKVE

T2 sequence (O15540 whole entry): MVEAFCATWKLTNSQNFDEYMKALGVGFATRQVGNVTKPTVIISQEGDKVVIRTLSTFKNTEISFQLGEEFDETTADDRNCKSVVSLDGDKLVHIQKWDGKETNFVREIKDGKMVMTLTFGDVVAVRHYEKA
T1 sequence (P05413 whole entry): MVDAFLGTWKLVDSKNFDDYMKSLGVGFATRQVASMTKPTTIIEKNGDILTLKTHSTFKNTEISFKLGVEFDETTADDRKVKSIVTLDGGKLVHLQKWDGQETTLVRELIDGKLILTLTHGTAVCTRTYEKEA

Structure (SMILES)	Ki [1]	Ki [2]	Ki [3]	effect on thermal hyperalgesia [4]	Ki [5]	FABP5/3 SI (selectivity index) [6]	FABP5/7 SI (selectivity index) ([6]; FABP5 over FABP7, from Ki values)	Ki [6]	FABP7/3 SI (selectivity index) [5]	FABP7/5 SI (selectivity index) [5]
O=C(O)C1C(c2ccccc2)C(C(=O)Oc2cccc3ccccc23)C1c1ccccc1 (stereo not drawn) [L1, α-truxillic acid 1‑naphthyl ester]	2.7 ± 0.42 µM	0.45 ± 0.07 µM								
COc1ccccc1C1[C@H](C(=O)O)[C@H](c2ccccc2OC)[C@H]1C(=O)Oc1cccc2ccccc12 (some centres unmarked) [L2]	0.69 ± 0.17 µM	0.67 ± 0.04 µM								
COc1ccccc1C1[C@H](C(=O)O)[C@H](c2ccccc2OC)[C@H]1C(=O)OCC1c2ccccc2-c2ccccc21 (some centres unmarked) [L3]	25.3 ± 4.57 µM	14.3 ± 0.41 µM								
COc1ccccc1C1C(C(=O)O)C(c2ccccc2OC)C1C(=O)OC1Cc2ccccc2C1 (stereo not drawn) [α-16, α-3-(2,3-Dihydro-1H-inden-2-yloxycarbonyl)-2,4-bis(2-methoxyphenyl)cyclobutane-1-carboxylic acid]			53.8 ± 7.28 µM	full reversal of hyperalgesia	21.8 ± 4.22 µM					
COc1ccccc1C1C(C(=O)O)C(c2ccccc2OC)C1C(=O)Oc1cccc(-c2ccc(F)cc2)c1 (centres unmarked) [γ-13, γ-3-(4′-Fluoro-1,1′-biphenyl-3-yloxycarbonyl)-2,4-bis(2-methoxyphenyl)-cyclobutane-1-carboxylic acid]			6.1 ± 1.34 µM		3.59 ± 0.24 µM	3.4	2.0	1.77 ± 0.02 µM		
COc1ccccc1C1C(C(=O)O)C(c2ccccc2OC)C1C(=O)Oc1cccc(-c2ccc3c(c2)OCCO3)c1 (centres unmarked) [γ-17, γ-3-(3-(2,3-Dihydrobenzo[b][1,4]dioxin-6-yl)phenoxycarbonyl)-2,4-bis(2-methoxyphenyl)cyclobutane-1-carboxylic acid]			8.18 ± 2.67 µM		5.12 ± 0.32 µM			3.69 ± 0.65 µM		
COc1ccccc1C1C(C(=O)O)C(c2ccccc2OC)C1C(=O)Oc1cccc(-c2ccc(C#N)cc2)c1 (centres unmarked) [γ-20, γ-3-(4′-Cyano-1,1′-biphenyl-3-yloxycarbonyl)-2,4-bis(2-methoxyphenyl)-cyclobutane-1-carboxylic acid]			27.9 ± 6.37 µM		9.11 ± 1.47 µM			2.46 ± 0.19 µM		
N#Cc1ccc(-c2ccccc2OC(=O)C2C(c3ccccc3)C(C(=O)O)C2c2ccccc2)cc1 (centres unmarked) [γ-102, γ-3-(4′-Cyano-1,1′-biphenyl-2-yloxycarbonyl)-2,4-diphenylcyclobutane-1-carboxylic acid]			5.78 ± 1.3 µM		0.95 ± 0.05 µM	4.2		1.39 ± 0.07 µM	6.1	1.5
O=C1Cc2cc(-c3cccc(OC(=O)C4C(c5ccccc5)C(C(=O)O)C4c4ccccc4)c3)ccc2N1 (centres unmarked) [γ-104, γ-3-(3-(2-Oxoindolin-5-yl)phenoxycarbonyl)-2,4-diphenylcyclobutane-1-carboxylic acid]			2.74 ± 0.44 µM		4.12 ± 0.32 µM			2.21 ± 0.43 µM		
COc1ccccc1C1C(C(=O)O)C(c2ccccc2OC)C1C(=O)Oc1ccccc1-c1ccc(C#N)cc1 (centres unmarked) [γ-105, γ-3-(4′-Cyano-1,1′-biphenyl-2-yloxycarbonyl)-2,4-bis(2-methoxyphenyl)cyclobutane-1-carboxylic acid]			3.39 ± 0.63 µM		1 ± 0.17 µM			2.81 ± 0.57 µM		
O=C(O)C1C(c2ccccc2)C(C(=O)Oc2cccc(-c3ccc4ccc(=O)[nH]c4c3)c2)C1c1ccccc1 (centres unmarked) [γ-108, γ-3-(3-(2-Oxo-1,2-dihydroquinolin-7-yl)phenoxycarbonyl)-2,4-diphenylcyclobutane-1-carboxylic acid]			4.02 ± 0.36 µM		13.8 ± 1.3 µM			10.9 ± 2.81 µM		
COc1ccccc1C1C(C(=O)O)C(c2ccccc2OC)C1C(=O)Oc1ccc(OC)c2ccccc12 (centres unmarked) [γ-109, γ-3-(4-Methoxynaphthalen-1-yloxycarbonyl)-2,4-bis(2-methoxyphenyl)cyclobutane-1-carboxylic acid]			3.5 ± 0.63 µM		0.47 ± 0.08 µM			26.6 ± 1.88 µM	7.4	56.6
O=C(O)C1C(c2ccccc2)C(C(=O)OCc2ccccc2-c2ccccc2)C1c1ccccc1 (centres unmarked) [ε-11, ε-3-(1,1′-Biphenyl-2-ylmethoxycarbonyl)-2,4-diphenylcyclobutane-1-carboxylic acid]			4.55 ± 0.64 µM		0.18 ± 0.01 µM			1.45 ± 0.26 µM	25.3	8.1
O=C(O)C1C(c2ccccc2)C(C(=O)OCc2cccc3ccccc23)C1c1ccccc1 (centres unmarked) [ε-23, ε-3-(Naphthalen-1-ylmethoxycarbonyl)-2,4-diphenylcyclobutane-1-carboxylic acid]			7.42 ± 1.38 µM		0.86 ± 0.04 µM			5.08 ± 0.62 µM		
O=C(O)C1C(c2ccccc2)C(C(=O)OCc2ccccc2-c2ccccc2)C1c1ccccc1 (centres unmarked) [ε-201, ε-3-(1,1′-Biphenyl-2-ylmethoxycarbonyl)-2,4-diphenylcyclobutane-1-carboxylic acid]			3.4 ± 0.54 µM		0.68 ± 0.16 µM			1.65 ± 0.22 µM	5.0	2.4
O=C(O)C1C(c2ccccc2)C(C(=O)Oc2cccc(-c3ccc4c(c3)OCCO4)c2)C1c1ccccc1 (centres unmarked) [ε-203, ε-3-(3-(2,3-Dihydrobenzo[b][1,4]dioxin-6-yl)phenoxycarbonyl)-2,4-diphenyl-cyclobutane-1-carboxylic acid]			7.84 ± 0.7 µM		1.49 ± 0.15 µM			3.15 ± 0.28 µM		
